Experimental data reported in publication PMC4020785 (PLoS ONE, 2014).
Like-named read-outs stand apart in the source and are kept apart here.

Experiments:
human PBMCs = assay: Cytotoxicity in human PBMCs at 24 and 72 h; format: cell-based
Procedure: Cytotoxicity of ISDs was evaluated in J-Lat (clones 9.2 and 10.6) and PHA-activated human PBMCs. Cells were added to wells in a 96-well plate in the presence of various concentrations of ISDs, PMA or prostratin in sextuplicates for 24 and 72 h. Cell viability was determined using the CellTiter-blue fluorescence Cell Viability Assay (Promega) following the manufacturer's instruction.

MT-4 cells = assay: Cell cycle analysis (propidium iodide) in MT-4 cells; format: cell-based; conditions: 48 h
Procedure: Human PBMCs and MT-4 cells were incubated at 37°C with different concentrations of ING-B for 48 h. After incubation, cells were collected, washed twice with PBS, and stained with 200 µl of propidium iodide (50 µg/mL, diluted in Hanks buffer with 1 mg/mL RNAse and 0.2% Triton X-100) for 15 min on ice before cytometry analysis.

[1] = design: method as in earlier work; conditions: rats, oral dosing; ref personal communication from Aurigon Life Science – Tutzing, Germany; cited from earlier work
[2] = design: method as in earlier work; conditions: dogs, oral dosing; ref personal communication from Aurigon Life Science – Tutzing, Germany; cited from earlier work

CCCCCC(=O)O[C@H]1C(C)=C[C@]23C(=O)[C@@H](C=C(CO)[C@@H](O)[C@]12O)[C@H]1[C@@H](C[C@H]3C)C1(C)C [ING-B, ingenol-3-hexanoate]
cytotoxicity (human PBMCs): less cytotoxic after 72 h of treatment | cell cycle phases (MT-4 cells): did not alter cell cycle phases | no-observed-adverse-effect level [1]: 4 mg/kg/day | no-observed-adverse-effect level [2]: 4 mg/kg/day
